In publication PMC11375437, “Selective labelling of GBA2 in cells with fluorescent β-D-arabinofuranosyl cyclitol aziridines” (Chemical Science, 2024):
Where “and” joins values, the source holds several entries; their conditions need not be identical. Equal values may be shown once. Read-outs that look alike come from different tables or passages of the source.

Molecular target: T1, GBA2 (Homo sapiens, UniProt Q9HCG7)
T1 sequence (Q9HCG7 1-927): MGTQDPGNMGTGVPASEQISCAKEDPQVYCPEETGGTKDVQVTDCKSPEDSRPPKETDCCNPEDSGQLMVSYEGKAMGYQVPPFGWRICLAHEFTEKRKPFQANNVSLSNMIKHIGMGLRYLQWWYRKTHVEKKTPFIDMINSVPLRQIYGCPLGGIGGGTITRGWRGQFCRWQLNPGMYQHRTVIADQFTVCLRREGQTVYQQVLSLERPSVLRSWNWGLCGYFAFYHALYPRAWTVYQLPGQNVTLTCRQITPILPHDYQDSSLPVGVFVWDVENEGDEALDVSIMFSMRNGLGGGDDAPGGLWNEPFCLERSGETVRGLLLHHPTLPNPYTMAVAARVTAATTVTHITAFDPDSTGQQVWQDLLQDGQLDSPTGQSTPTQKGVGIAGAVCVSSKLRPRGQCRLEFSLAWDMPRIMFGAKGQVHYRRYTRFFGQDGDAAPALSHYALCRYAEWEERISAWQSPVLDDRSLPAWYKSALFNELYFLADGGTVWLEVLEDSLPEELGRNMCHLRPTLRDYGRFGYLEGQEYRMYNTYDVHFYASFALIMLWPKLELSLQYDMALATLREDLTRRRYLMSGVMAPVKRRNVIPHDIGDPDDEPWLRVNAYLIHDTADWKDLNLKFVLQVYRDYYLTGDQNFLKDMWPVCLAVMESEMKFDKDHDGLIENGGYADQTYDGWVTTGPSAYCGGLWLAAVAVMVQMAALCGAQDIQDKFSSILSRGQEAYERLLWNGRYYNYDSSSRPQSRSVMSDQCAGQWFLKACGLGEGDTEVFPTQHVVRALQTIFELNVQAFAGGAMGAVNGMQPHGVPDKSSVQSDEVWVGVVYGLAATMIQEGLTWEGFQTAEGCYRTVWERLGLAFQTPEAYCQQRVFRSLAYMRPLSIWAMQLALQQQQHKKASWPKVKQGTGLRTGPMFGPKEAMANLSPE
Experiment: 4MU fluorogenic substrate assay for apparent IC50, GBA2
Format: biochemical
Design: expressed in transfected cells; host or cells: HEK293T GBA1/GBA2 KO (CRISPR/Cas9), GBA2 overexpressed
Settings: 4MU-β-D-Glc
Text: To identify an ABP that selectively labels human GBA2 over GBA1 and GBA3, a library of cyclophellitol-based ABPs with varying configurations (ESI Fig. S1 ^†) was screened for their selectivity towards human retaining β-glucosidases. For this purpose, we initially assessed the inhibition properties of the compounds using recombinant human GBA1 (rhGBA1, imiglucerase), lysates of cells overexpressing GBA2 or GBA3 (both in combination with knockout of the other retaining β-glucosidases). In a preliminary screen, enzymes were pre-incubated for 30 min with the tested compounds, followed by the addition of the fluorogenic substrate, 4MU-β-D-Glc, and subsequent quantification of released fluorescent 4MU after 30 minutes. This screening brought our attention to a new set of β-D-Araf cyclitol aziridines as potential GBA2 inhibitors. […] On the other hand, the biotin-tagged β-D-Araf compound 6 is a poor inhibitor of all three glucosidases (apparent IC50 > 8 μM). Arabinofuranosyl cyclitol 12–20 with various configurations (α-L-Araf and β-L-Araf) were also evaluated (ESI Fig. S1 ^†).
Recombinant human GBA1 (rhGBA1, Imiglucerase) was kindly provided by Sanofi Genzyme (Cambridge, MA, USA). 4-Methylumbelliferyl-β-D-glucopyranoside substrates were purchase from Glycosynth (Warrington Cheshire, UK). Protein concentration was measured using the Pierce BCA assay kit (Thermo Fisher Scientific, Waltham, MA, USA). Harvested cells (cell pellets), cell lysates and tissue homogenates not used directly were stored at -80 °C.
HEK293T (CRL‐3216™) cells were purchased from ATCC (Manassas, VA, USA). HEK293T cells were cultured in DMEM medium (Sigma‐Aldrich), supplied with 10% (v/v) FCS, 0.1% (w/v) penicillin/streptomycin and 1% (v/v) Glutamax, under 37 °C and 5% or 7% CO2. […]
2.3 Generation of cells genetically modified for β-glucosidase expression For overexpression of the different β-glucosidases, "wildtype" HEK293T cells, HEK293T cells with GBA2 knockout (KO) or HEK293T cells with both GBA1 and GBA2 KO were used, following by the overexpression (OE) of targeted β-glucosidases using the constructs as described in references.1,2 Either GBA2 or GBA3 were overexpressed in GBA1/GBA2 KO HEK293T (generated by the CRISPR/Cas9 method2) to generate GBA1/2 KOs with GBA2 (or GBA3) for overexpression in HEK293T cells as indicated, or using "wildtype" HEK293T cells containing endogenous GBA1 and GBA2 to overexpress both GBA2 and GBA3, these were generated as described in our previous report.1,2 […]
Cells were cultured with the method described above to 80-90% confluency, and were isolated, washed with Dulbecco′s phosphate buffered saline (PBS) and subsequently collected using the following method.3 HEK293T and RPE-1 cells were easily detached from the culture plate by trypsin treatment after which some DMEM medium was added. The cells were collected by pipetting and DMEM medium was removed by centrifuging. The cells were washed with cold PBS three times, after which they were centrifuged to remove PBS and then stored at –80 °C for further use or lysed in potassium phosphate buffer (K2HPO4-KH2PO4, 25 mM, pH 6.5, supplemented with 0.1% (v/v) Triton X-100 and protease inhibitor cocktail (EDTA-free, Roche, Basel, Switzerland)) by sonication with a Polytron PT 1300D sonicator (Kinematica, Luzern, Switzerland). After sonication, lysed mixtures were centrifuged at 10,000 x g for 3 min at 4°C, and the supernatants where desired β-glucosidases exist were used for the experiment.
2.5 4MU fluorogenic substrate assay for apparent IC50 determination
4MU fluorogenic substrate assays (using recombination human rhGBA1 or lysates of HEK293T cells) were conducted in 96-well plates at 37 °C. Samples were diluted with McIlvaine buffer (150 mM citric acid-Na2HPO4) to a final volume of 25 μL, at the appropriate pH for each enzyme. Assays were performed by incubating the samples with 100 μL 4-methylumbelliferyl-β-D-glucopyranoside substrate diluted in McIlvaine buffer for a period of 30 min. […]

[1] = Apparent IC50 GBA2, GBA1/GBA2 KO GBA2 OE HEK293T cell lysate, 30 min pre-incubation, pH 5.8, n = 3 for β-D-Araf, n = 1 for α-L-Araf and β-L-Araf
[2] = GBA1/GBA2 KO GBA2 OE HEK293T cell lysate, 30 min pre-incubation, pH 5.8, n = 3 for β-D-Araf, n = 1 for α-L-Araf and β-L-Araf, read-out: Apparent IC50 GBA2

| SMILES | IC50 [1] | IC50 [2] [nM] | other results |
| --- | --- | --- | --- |
| COc1ccc(C2=[N+]3C(=C(CCCCc4cn(CCCCCCCCN5[C@@H]6[C@H](CO)[C@@H](O)[C@H](O)[C@@H]65)nn4)c4ccc(-c5ccc(OC)cc5)n4[B-]3(F)F)C=C2)cc1 (some centres unmarked) [ABP 4] | 120 to 160 nM and 162 nM | – | – |
| CC1=CC(C)=[N+]2C1=C(CCCCc1cn(CCCCCCCCN3[C@@H]4[C@H](CO)[C@@H](O)[C@H](O)[C@@H]43)nn1)c1c(C)cc(C)n1[B-]2(F)F (some centres unmarked) [ABP 3] | 120 to 160 nM and 124 nM | – | – |
| OC[C@@H]1[C@@H](O)[C@H](O)[C@@H]2N[C@H]12 [Compound 1, β-D-Arabinofuranosyl cyclitol aziridine] | – | > 50000 | IC50 (30 min pre-incubation, read-out: Apparent IC50 GBA2): > 50000 nM |
| [N-]=[N+]=NCCCCCCCCN1[C@@H]2[C@H](CO)[C@@H](O)[C@H](O)[C@@H]21 (stereo partly drawn) [Compound 2, β-D-arabinofuranosyl cyclitol aziridine-azidooctyl] | – | 630 | – |
| O=C(CCCC[C@@H]1SC[C@@H]2NC(=O)N[C@@H]21)NCc1cn(CCCCCCCCN2[C@@H]3[C@H](CO)[C@@H](O)[C@H](O)[C@@H]32)nn1 (some centres unmarked) [ABP 6] | 8480 ± 763 nM | – | IC50 (Apparent IC50 GBA2, 30 min pre-incubation): > 8000 nM |
| CN1/C(=C/C=C/C=C/C2=[N+](CCCCCC(=O)NCc3cn(CCCCCCCCN4[C@@H]5[C@H](CO)[C@@H](O)[C@H](O)[C@@H]54)nn3)c3ccccc3C2(C)C)C(C)(C)c2ccccc21 (some centres unmarked) [ABP 5] | 250 to 300 nM and 264 nM | – | – |
